# pIC50, pKi: −log10 of the molar value.
# Tests used:
# UGT1A3 = molecular target: T1, UGT1A3 (Homo sapiens, UniProt P35503); test: Inhibition of recombinant UGT-catalyzed 4-MU glucuronidation; format: biochemical; settings: for inhibition at 120 min, 100 µM: human, pH 7.4, probe 4-methylumbelliferone (4-MU), 1200 μM, 100 μM compound, 4-MU probe substrate, negative = activation
# T1 construct: purchased BD Gentest Corp. (Woburn, MA, USA); host or cells: baculovirus-infected insect cells
# T1 sequence (P35503 29-534): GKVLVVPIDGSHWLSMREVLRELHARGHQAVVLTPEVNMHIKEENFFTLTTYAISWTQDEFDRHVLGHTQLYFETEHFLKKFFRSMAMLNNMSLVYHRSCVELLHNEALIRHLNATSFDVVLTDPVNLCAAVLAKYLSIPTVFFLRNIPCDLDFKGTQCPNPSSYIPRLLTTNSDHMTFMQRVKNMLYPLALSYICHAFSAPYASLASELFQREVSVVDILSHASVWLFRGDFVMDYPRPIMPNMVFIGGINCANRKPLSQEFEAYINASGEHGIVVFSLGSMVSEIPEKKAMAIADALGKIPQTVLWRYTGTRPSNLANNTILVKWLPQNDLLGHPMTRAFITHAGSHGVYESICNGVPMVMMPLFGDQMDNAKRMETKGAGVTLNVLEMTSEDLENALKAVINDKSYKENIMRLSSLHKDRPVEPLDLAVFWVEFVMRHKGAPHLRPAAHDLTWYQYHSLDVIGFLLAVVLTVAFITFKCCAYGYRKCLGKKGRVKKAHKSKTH
# UGT1A9 = molecular target: T2, UGT1A9 (Homo sapiens, UniProt O60656); test: as above; format: biochemical; settings: for inhibition at 30 min, 100 µM: human, pH 7.4, probe 4-methylumbelliferone (4-MU), 30 μM, 100 μM compound, 4-MU probe substrate, negative = activation
# T2 construct: purchased BD Gentest Corp. (Woburn, MA, USA); host or cells: baculovirus-infected insect cells
# T2 sequence (O60656 26-530): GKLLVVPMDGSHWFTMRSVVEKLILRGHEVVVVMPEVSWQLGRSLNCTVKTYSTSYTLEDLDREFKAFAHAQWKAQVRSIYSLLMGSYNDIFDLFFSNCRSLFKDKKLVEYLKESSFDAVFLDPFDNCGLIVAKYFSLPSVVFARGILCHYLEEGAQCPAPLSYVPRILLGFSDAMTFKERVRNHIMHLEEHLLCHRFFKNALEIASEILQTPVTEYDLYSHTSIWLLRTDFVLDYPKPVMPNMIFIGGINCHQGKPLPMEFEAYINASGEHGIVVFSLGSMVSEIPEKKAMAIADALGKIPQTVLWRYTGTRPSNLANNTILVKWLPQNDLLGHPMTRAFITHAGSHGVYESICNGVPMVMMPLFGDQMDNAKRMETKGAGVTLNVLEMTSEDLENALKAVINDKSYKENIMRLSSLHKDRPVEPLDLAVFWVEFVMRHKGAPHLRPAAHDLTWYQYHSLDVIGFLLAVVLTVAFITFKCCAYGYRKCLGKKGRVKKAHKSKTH
# [1] = Dixon plot and Lineweaver-Burk plot
"inhibition at 120 min, 100 µM (UGT1A3) [%]","inhibition at 30 min, 100 µM (UGT1A9) [%]","pIC50 (UGT1A3; 4-MU glucuronidation, Probit analysis, read-out: IC50 towards UGT1A3)",inhibition type towards UGT1A3 (UGT1A3; [1]),"pKi (UGT1A3; second plot of Lineweaver-Burk slopes, read-out: inhibition constant (Ki) towards UGT1A3)","pIC50 (UGT1A9; 4-MU glucuronidation, Probit analysis, read-out: IC50 towards UGT1A9)",inhibition type towards UGT1A9 (UGT1A9; [1]),"pKi (UGT1A9; second plot of Lineweaver-Burk slopes, read-out: inhibition constant (Ki) towards UGT1A9)",SMILES
-16,8.2,,,,,,,"O=c1c2cc(O)c(O)cc2oc2cc(O)c([C@@H]3O[C@H](CO)[C@@H](O)[C@H](O)[C@H]3O)c(O)c12 [MGF, 1,3,6,7-tetrahydroxyxanthone-C-2-β-D-glucoside]"
87.6,94.2,5.09,competitively inhibited,5.80,4.91,competitively inhibited,5.55,"O=c1c2cc(O)c(O)cc2oc2cc(O)cc(O)c12 [NTR, 1,3,6,7-tetrahydroxyxanthone]"

# Source: paper PMC6152678, “In Vitro Comparative Study of the Inhibitory Effects of Mangiferin and Its Aglycone Norathyriol towards UDP-Glucuronosyl Transferase (UGT) Isoforms” (Molecules : A Journal of Synthetic Chemistry and Natural …, 2017)
